## CCOc1cc([C@@H](CS(C)(=O)=O)N2Cc3cccc(N)c3C2=O)ccc1OC [Example 5.5, 7-amino-2-[(1S)-1-(3-ethoxy-4-methoxy-phenyl)-2-methanesulfonyl-ethyl]-2,3-dihydro-isoindol-1-one]
  melting point: 135 to 137 °C
